Patent US20150315188A1, “COMPOUNDS AND METHODS FOR TREATMENT OF HYPERTENSION” (MEDIVATION TECHNOLOGIES, INC., priority 2012, published 2015)

Assays:
[1] = biological target: T1, Human adrenergic α1B receptor (Homo sapiens, UniProt P35368); assay: β-Arrestin GPCR functional assay, adrenergic α1B (Protocol B); format: cell-based; conditions: for IC50: β-arrestin, antagonist vs nor-epinephrine EC80; for inhibition at 0.1 µM / inhibition at 0.3 µM / Percentage inhibition, Adrenergic α1B: nor-epinephrine at EC80 (50 nM); for inhibition at 0.1 µM / inhibition at 0.3 µM: read-out: Percentage inhibition, Adrenergic α1B
T1 sequence (P35368 1-520): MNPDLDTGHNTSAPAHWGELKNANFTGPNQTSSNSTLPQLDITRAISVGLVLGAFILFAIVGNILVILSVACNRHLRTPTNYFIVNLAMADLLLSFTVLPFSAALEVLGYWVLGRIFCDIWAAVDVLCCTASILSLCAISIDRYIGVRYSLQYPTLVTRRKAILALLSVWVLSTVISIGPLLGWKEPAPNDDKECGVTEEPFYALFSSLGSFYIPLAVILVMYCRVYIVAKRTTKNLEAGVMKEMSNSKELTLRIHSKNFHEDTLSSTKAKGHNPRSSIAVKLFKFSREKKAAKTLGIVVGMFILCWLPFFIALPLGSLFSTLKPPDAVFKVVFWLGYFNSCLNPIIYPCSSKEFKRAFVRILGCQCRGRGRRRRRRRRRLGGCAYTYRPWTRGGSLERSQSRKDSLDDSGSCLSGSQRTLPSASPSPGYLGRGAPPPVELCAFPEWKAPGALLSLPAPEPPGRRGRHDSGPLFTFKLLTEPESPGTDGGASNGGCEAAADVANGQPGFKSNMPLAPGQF
Method: To evaluate the activity of compounds in β-Arrestin GPCR functional assays, recombinant CHO cell line (DiscoveRX), over expressed with human adrenergic α1B receptor were used. The experiment was done with a kit of DiscoveRX as per recommended protocol of the supplier. Cells were harvested from culture flask using cell dissociation solution (CDS) and plated at a density of 12,000 cells/well in CP reagent (supplied with the kit) in a half area 96-well white polystyrene plate. After 24 h incubation at 37° C., compounds at various concentrations in 1% (final) DMSO were charged to the cells for 30 min at 37° C. Active nor-epinephrine (-NE) at its EC80 concentrations (50 nM) were then added to the cells and incubated for another 90 min at 37° C. Detection mix was prepared by mixing Path Hunter cell assay buffer, Emerald II solution and Galactone star solution in a ratio of 19:5:1 and incubated with the cells for 60 min at RT in the dark. The reading was taken in Envision at luminescence mode. Biochemical assay results are presented as the percent Inhibition in Table B2a, or IC50 values in Table B2b.

[2] = biological target: T1, Human adrenergic α1B receptor; assay: Radioligand binding, adrenergic α1B (Protocol Group B); set-up: purchased Milipore (Millipore); conditions: for Percentage inhibition of ligand binding, Adrenergic α1B (0.1 μM) / inhibition at 0.1 µM: 0.1 μM compound; for Percentage inhibition of ligand binding, Adrenergic α1B (0.1 μM) / Percentage inhibition of ligand binding, Adrenergic α1B (0.3 μM) / Ki / inhibition at 0.1 µM / inhibition at 0.3 µM: Protocol Group B; for Percentage inhibition of ligand binding, Adrenergic α1B (0.3 μM) / inhibition at 0.3 µM: 0.3 μM compound; for Ki: estimated Ki; for inhibition at 0.1 µM: read-out: Percentage inhibition of ligand binding, Adrenergic α1B (0.1 μM); for inhibition at 0.3 µM: read-out: Percentage inhibition of ligand binding, Adrenergic α1B (0.3 μM); for inhibition at 0.0032 µM: 3.2 nM compound, read-out: Percentage inhibition of ligand binding, Adrenergic α1B, 3.2 nM; for inhibition at 0.0032 µM / inhibition at 0.01 µM / inhibition at 0.03 µM / inhibition at 0.32 µM / inhibition at 1 µM / inhibition at 3.2 µM / inhibition at 10 µM: concentration series; for inhibition at 0.01 µM: 10 nM compound, read-out: Percentage inhibition of ligand binding, Adrenergic α1B, 10 nM; for inhibition at 0.03 µM: 0.03 μM compound, read-out: Percentage inhibition of ligand binding, Adrenergic α1B, 0.03 μM; for inhibition at 0.32 µM: 0.32 μM compound, read-out: Percentage inhibition of ligand binding, Adrenergic α1B, 0.32 μM; for inhibition at 1 µM: 1 μM compound, read-out: Percentage inhibition of ligand binding, Adrenergic α1B, 1 μM; for inhibition at 3.2 µM: 3.2 μM compound, read-out: Percentage inhibition of ligand binding, Adrenergic α1B, 3.2 μM; for inhibition at 10 µM: 10 μM compound, read-out: Percentage inhibition of ligand binding, Adrenergic α1B, 10 μM
Method in brief: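 Values are percent inhibition of specific [3H]prazosin (0.3 nM) binding or estimated Ki, from filtration counting. Human α1B recombinant membranes, Tris-HCl pH 7.4 buffer with MgCl2 and EDTA, 60 min at 25 °C, 1% DMSO vehicle; 10 μM prazosin defined nonspecific binding.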

SMILES | IC50 [1] | Percentage inhibition of ligand binding, Adrenergic α1B (0.1 μM) [2] | Percentage inhibition of ligand binding, Adrenergic α1B (0.3 μM) [2] | Ki [2] | inhibition at 0.3 µM [2] | other results
Cc1cc(Cl)c2c(c1)c1c(n2CC(C)(O)c2ccncc2)CCN2CCCC12 (single isomer, unassigned) [91b] | 0.283 µM | 43% | 68% | 0.0382 µM |  | 
OC(Cn1c2c(c3cc(Cl)cc(F)c31)C1CCCN1CC2)c1ccncc1 (single isomer, unassigned) [135a] | 0.189 µM |  |  | 0.023 µM | 92% | inhibition at 0.1 µM [2]: 71%
CCCOC(Cn1c2c(c3cc(C)ccc31)CN(C)CC2)c1ccncc1 (single isomer, unassigned) [42b] | 1.14 µM | 27% | 45% | 0.199 µM |  | 
OC(Cn1c2c(c3cc(F)ccc31)C1CCCN1CC2)c1ccncc1 (single isomer, unassigned) [18b] | 0.357 µM |  |  | 0.0658 µM | 63% | inhibition at 0.1 µM ([1]; 0.1 μM compound): 19%; inhibition at 0.3 µM ([1]; 0.3 μM compound): 46%; inhibition at 0.0032 µM [2]: 14%; inhibition at 0.01 µM [2]: 17%; inhibition at 0.03 µM [2]: 14%; inhibition at 0.1 µM [2]: 45%; inhibition at 0.32 µM [2]: 74%; inhibition at 1 µM [2]: 87%; inhibition at 3.2 µM [2]: 96%; inhibition at 10 µM [2]: 99%
CCOC(Cn1c2c(c3cc(C)ccc31)CN(C)CC2)c1ccncc1 (single isomer, unassigned) [43a] | 0.67 µM | 29% | 55% | 0.111 µM |  | 
Cc1cc2c3c(n(CC(C)(O)c4ccncc4)c2cc1Cl)CCN1CCCC31 (single isomer, unassigned) [50a] | 0.047 µM |  |  | 0.0037 µM | 96% | inhibition at 0.1 µM [2]: 89%
CC(O)(Cn1c2c(c3cc(Cl)cc(F)c31)C1CCCN1CC2)c1ccncc1 (single isomer, unassigned) [52b] | 0.224 µM | 35% | 73% | 0.0398 µM |  | 
Cc1ccc2c(c1)c1c(n2CC(C)(O)c2ccncc2)CCN2CCCC12 (single isomer, unassigned) [13a] | 0.1 µM |  |  | 0.01 µM |  | inhibition at 0.1 µM ([1]; 0.1 μM compound): 49%; inhibition at 0.3 µM ([1]; 0.3 μM compound): 74%
Cc1ccc2c(c1)c1c(n2CC(O)c2ccncc2)CC[N+]2([O-])CCCC12 (stereo not shown) [compound 23, 7-(2-hydroxy-2-(pyridin-4-yl)ethyl)-10-methyl-1,2,3,4,5,6,7,11c-octahydroindolizino[7,8-b]indole 4-oxide] | 1.21 µM |  |  | 0.0564 µM | 65% | inhibition at 0.1 µM ([1]; 0.1 μM compound): 15%; inhibition at 0.3 µM ([1]; 0.3 μM compound): 15%; inhibition at 0.0032 µM [2]: 21%; inhibition at 0.01 µM [2]: 22%; inhibition at 0.03 µM [2]: 32%; inhibition at 0.1 µM [2]: 53%; inhibition at 0.32 µM [2]: 64%; inhibition at 1 µM [2]: 72%; inhibition at 3.2 µM [2]: 85%; inhibition at 10 µM [2]: 93%
Cc1cc(C)c2c(c1)c1c(n2CC(C)(O)c2cccnc2)CCN2CCCC12 (single isomer, unassigned) [44b] | 0.252 µM | 69% | 85% | 0.014 µM |  | 
Cc1ccc2c(c1)c1c(n2CC(OCC2CCC2)c2ccncc2)CCN2CCCC12 (single isomer, unassigned) [138a] | 0.0722 µM | 84% |  | 0.0024 µM | 88% | 
Cc1ccc2c(c1)c1c(n2CC(O)c2ccncc2F)CCN2CCCC12 (single isomer, unassigned) [14b] | 0.025 µM | 85% | 95% | 0.0045 µM |  | Percentage inhibition, Adrenergic α1B ([1]; 0.1 μM compound): 76%; Percentage inhibition, Adrenergic α1B ([1]; 0.3 μM compound): 86%
Cc1ccc2c(c1)c1c(n2CC(OCC2CCC2)c2ccncc2)CCN2CCCC12 (single isomer, unassigned) [138b] | 0.926 µM | 57% | 80% | 0.014 µM |  | 
Cc1cc(F)cc2c3c(n(CC(C)(O)c4cccnc4)c12)CCN1CCCC31 (single isomer, unassigned) [75a] | 0.719 µM | −1% | 12% |  |  | 
Cc1cc(F)c2c(c1)c1c(n2CC(O)c2ccncc2)CCN2CCCC12 (single isomer, unassigned) [137b] | 0.0356 µM | 74% | 94% | 0.0073 µM |  | 
